# Publication PMC6272981, “A Selective Cyclic Peptidic Human SIRT5 Inhibitor” (Molecules, 2016)
# Several values for one entry are separate records, joined by “and”; a condition that tells them apart may be missing. Equal entries are not always repeated. *1 amine or outer side, *2 acyl side, *3 side chain or, on linkers, in order; H or OH if unused. Where a SMILES comes first, the peptide text is derived from it. Bridges are numbered along the chain shown (N, C = ends). [ ]: non-standard residue; d: D form. Suberoyl(Gly)2 = O=C(CCCCCCC(=O)NCC(=O)[*:2])NCC(=O)[*:1]; X1 = O=C(O)CCNC(=S)NCCCC[C@H](N[*:1])C(=O)[*:2]; Suberoyl = O=C(CCCCCCC(=O)[*:2])[*:1]
# Assays:
# SIRT5 = SIRT5 desuccinylation assay; cited from earlier work
# SIRT1 = details: cited from earlier work
# SIRT2 = details: cited from earlier work
# SIRT3 = details: cited from earlier work
# [1] = biological target: T1, human recombinant GST-SIRT5 (Homo sapiens, UniProt Q9NXA8); assay: HPLC-based in vitro sirtuin inhibition assay, SIRT5-catalyzed deacylation (desuccinylation); assay type: biochemical; details: GST-SIRT5 370 nM, 0.8 mM β-NAD+, 0.88 mM succinyl-lysine H3 peptide substrate, 37 °C, 5 min; estimated from Dixon plots
# T1 construct: purchased Cayman Chemical (Ann Arbor, Michigan, USA)
# T1 sequence (Q9NXA8 37-310): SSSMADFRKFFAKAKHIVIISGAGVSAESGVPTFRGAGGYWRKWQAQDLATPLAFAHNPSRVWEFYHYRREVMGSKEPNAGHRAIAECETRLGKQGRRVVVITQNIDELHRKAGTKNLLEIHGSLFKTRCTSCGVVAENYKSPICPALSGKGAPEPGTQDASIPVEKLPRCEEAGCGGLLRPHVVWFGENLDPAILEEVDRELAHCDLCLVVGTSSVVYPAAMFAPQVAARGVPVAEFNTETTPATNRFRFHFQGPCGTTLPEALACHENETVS
# Description: (§1) The following materials were purchased from commercial vendors for the sirtuin inhibition assay and the pronase digestion assay, and were used as received without further treatment. Sigma-Aldrich China: the active human recombinant His6-SIRT1, Trizma, Hepes, β-NAD^+, a 1.0 M solution of MgCl2 (molecular-biology grade), the pronase from Streptomyces griseus; Cayman Chemical (Ann Arbor, Michigan, USA): the active human recombinant GST-SIRT1, the active human recombinant His6-SIRT2, the active human recombinant His6-SIRT3, the active human recombinant GST-SIRT5, the active human recombinant His6-SIRT6; TCI Shanghai: D,L-dithiothreitol (DTT); Alfa Aesar China: NaCl, KCl.
# (§2) The peptide substrates prepared and used in the sirtuin inhibition assay were: the SIRT1/2/3 substrate H2N-HK-[N^ε-acetyl-lysine]-LM-COOH corresponding to amino acids 380–384 of the human p53 protein acetylated at K^382; the SIRT5 substrate CH3CONH-AR-[N^ε-succinyl-lysine]-ST-CONH2 corresponding to amino acids 7–11 of the human histone H3 protein succinylated at K^9; the SIRT6 substrate H2N-EALPK-[N^ε-myristoyl-lysine]-TGGPQ-CONH2 corresponding to amino acids 15–25 of the human tumor necrosis factor α (TNFα) myristoylated at K^20.
# (§3) The HPLC-based sirtuin inhibition assay that our laboratory has been using over past several years was employed in the current study and was performed as described previously. […]
# [2] = biological target: T2, human recombinant His6-SIRT2 (Homo sapiens, UniProt Q8IXJ6); assay: HPLC-based in vitro sirtuin inhibition assay, SIRT2-catalyzed deacetylation; assay type: biochemical; details: His6-SIRT2 309 nM, 0.5 mM β-NAD+, 0.39 mM acetyl-lysine p53 peptide substrate, 37 °C, 12 min; Dixon plots
# T2 construct: purchased Cayman Chemical (Ann Arbor, Michigan, USA)
# T2 sequence (Q8IXJ6 1-389): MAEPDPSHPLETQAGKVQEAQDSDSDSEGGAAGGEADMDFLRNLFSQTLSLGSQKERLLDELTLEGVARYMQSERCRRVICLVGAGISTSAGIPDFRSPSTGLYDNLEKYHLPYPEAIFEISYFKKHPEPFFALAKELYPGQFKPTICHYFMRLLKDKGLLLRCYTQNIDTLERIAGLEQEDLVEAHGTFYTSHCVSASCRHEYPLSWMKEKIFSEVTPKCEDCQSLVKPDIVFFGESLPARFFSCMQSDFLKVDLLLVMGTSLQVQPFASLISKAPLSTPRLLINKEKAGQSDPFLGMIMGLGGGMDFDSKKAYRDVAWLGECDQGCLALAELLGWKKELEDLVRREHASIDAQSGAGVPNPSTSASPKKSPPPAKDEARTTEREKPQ
# Description: as §1, §2, §3
# [3] = biological target: T3, human recombinant His6-SIRT1 or GST-SIRT1 (Homo sapiens, UniProt Q96EB6); assay: HPLC-based in vitro sirtuin inhibition assay, SIRT1; assay type: biochemical; details: SIRT1 320 nM, 0.5 mM β-NAD+, 0.3 mM acetyl-lysine p53 peptide substrate, 37 °C, 10 min; Dixon plots
# T3 construct: His6 or GST (one of the two); purchased Sigma-Aldrich China (His6-SIRT1) or Cayman Chemical (GST-SIRT1)
# T3 sequence (Q96EB6 1-747): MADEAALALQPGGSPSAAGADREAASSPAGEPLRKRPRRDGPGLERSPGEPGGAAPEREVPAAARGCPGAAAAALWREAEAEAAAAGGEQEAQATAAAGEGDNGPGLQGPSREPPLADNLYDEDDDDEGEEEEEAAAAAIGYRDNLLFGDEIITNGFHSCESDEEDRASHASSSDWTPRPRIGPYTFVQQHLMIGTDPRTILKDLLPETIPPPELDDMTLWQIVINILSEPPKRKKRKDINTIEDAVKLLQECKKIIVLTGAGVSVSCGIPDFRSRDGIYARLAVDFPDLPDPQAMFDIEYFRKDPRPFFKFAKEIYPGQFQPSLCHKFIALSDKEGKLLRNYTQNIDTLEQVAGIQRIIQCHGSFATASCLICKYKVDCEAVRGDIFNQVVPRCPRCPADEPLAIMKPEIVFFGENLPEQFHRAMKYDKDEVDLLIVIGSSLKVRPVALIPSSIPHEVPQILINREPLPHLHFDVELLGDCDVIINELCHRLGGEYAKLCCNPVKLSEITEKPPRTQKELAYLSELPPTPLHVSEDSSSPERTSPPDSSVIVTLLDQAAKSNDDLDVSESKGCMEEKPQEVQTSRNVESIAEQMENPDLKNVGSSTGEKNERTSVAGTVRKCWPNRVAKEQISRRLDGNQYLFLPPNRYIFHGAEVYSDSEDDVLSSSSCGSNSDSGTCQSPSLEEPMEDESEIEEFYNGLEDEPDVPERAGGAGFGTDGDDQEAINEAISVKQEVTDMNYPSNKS
# Description: as §1, §2, §3
# [4] = biological target: T4, human recombinant His6-SIRT3 (Homo sapiens, UniProt Q9NTG7); assay: HPLC-based in vitro sirtuin inhibition assay, SIRT3; assay type: biochemical; details: His6-SIRT3 320 nM, 3.5 mM β-NAD+, 0.105 mM acetyl-lysine p53 peptide substrate, 37 °C, 10 min; Dixon plots
# T4 construct: purchased Cayman Chemical (Ann Arbor, Michigan, USA)
# T4 sequence (Q9NTG7 1-399): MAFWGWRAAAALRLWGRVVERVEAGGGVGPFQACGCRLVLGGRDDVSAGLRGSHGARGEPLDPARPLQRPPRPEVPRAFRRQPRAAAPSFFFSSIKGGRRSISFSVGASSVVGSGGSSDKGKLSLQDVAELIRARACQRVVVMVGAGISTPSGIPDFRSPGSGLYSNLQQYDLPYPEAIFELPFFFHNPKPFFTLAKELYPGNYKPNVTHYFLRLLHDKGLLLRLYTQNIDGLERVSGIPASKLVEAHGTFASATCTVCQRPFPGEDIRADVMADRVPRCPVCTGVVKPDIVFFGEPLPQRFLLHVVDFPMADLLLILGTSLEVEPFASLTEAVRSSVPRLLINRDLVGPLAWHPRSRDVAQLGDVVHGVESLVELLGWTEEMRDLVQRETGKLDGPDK
# Description: as §1, §2, §3
# [5] = biological target: T5, human recombinant His6-SIRT6 (Homo sapiens, UniProt Q8N6T7); assay: HPLC-based in vitro sirtuin inhibition assay, SIRT6 (demyristoylation); assay type: biochemical; details: His6-SIRT6 313 nM, 0.2 mM β-NAD+, 0.02 mM myristoyl-lysine TNFα peptide substrate, 37 °C, 12 min; Dixon plots
# T5 construct: purchased Cayman Chemical (Ann Arbor, Michigan, USA)
# T5 sequence (Q8N6T7 whole entry): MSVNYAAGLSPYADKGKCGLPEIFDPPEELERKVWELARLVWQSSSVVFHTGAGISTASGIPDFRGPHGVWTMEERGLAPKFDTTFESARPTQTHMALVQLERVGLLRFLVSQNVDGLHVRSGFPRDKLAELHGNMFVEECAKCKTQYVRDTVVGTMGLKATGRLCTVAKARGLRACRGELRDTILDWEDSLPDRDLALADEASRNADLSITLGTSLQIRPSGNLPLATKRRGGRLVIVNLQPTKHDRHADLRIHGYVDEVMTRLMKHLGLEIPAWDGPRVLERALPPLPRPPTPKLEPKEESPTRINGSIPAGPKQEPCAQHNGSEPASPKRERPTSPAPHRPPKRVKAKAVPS
# Description: as §1, §2, §3
Compound,IC50 (SIRT5) [µM],IC50 (SIRT1) [µM],IC50 (SIRT2) [µM],IC50 (SIRT3) [µM],IC50 [1],IC50 [2],IC50 SIRT1 [3] [µM],IC50 [4] [µM],IC50 [5] [µM]
C=CCN1C(=O)/C(=C/c2ccc(-c3cccc(Cl)c3Cl)o2)C(=O)NC1=S [Compound 3],2.3,5.3,9.7,> 50,,,,,
CC(=O)N[C@H]1CCCCNC(=O)CNC(=O)CCCCCCC(=O)NCC(=O)NCCCC[C@@H](C(=O)N[C@H](C(N)=O)[C@@H](C)O)NC(=O)[C@H](CCCCNC(=S)NCCC(=O)O)NC(=O)[C@H](CCCNC(=N)N)NC1=O [Compound 4] (Ac-KR[X1]KT-NH2; linker 1-4 via Suberoyl(Gly)2),,,,,~6 µM and 6 µM,~9.2 µM and 9.2 µM,,,
CC(=O)N[C@H]1CCCCNC(=O)CCCCCCC(=O)NCCCC[C@@H](C(=O)N[C@H](C(N)=O)[C@@H](C)O)NC(=O)[C@H](CCCCNC(=S)NCCC(=O)O)NC(=O)[C@H](CCCNC(=N)N)NC1=O [Compound 5] (Ac-KR[X1]KT-NH2; linker 1-4 via Suberoyl),,,,,~7.5 µM and 7.5 µM,> 1000 µM,>1000,> 200,> 200
CC(=O)N[C@@H](C)C(=O)N[C@@H](CCCNC(=N)N)C(=O)N[C@@H](CCCCNC(=S)NCCC(=O)O)C(=O)N[C@@H](CO)C(=O)N[C@H](C(N)=O)[C@@H](C)O [Compound 6] (Ac-AR[X1]ST-NH2),,,,,7.6 ± 1.5 µM,96.4 ± 18.5 µM,>1000,> 1000,> 1000
CH3CONH-AR-(N^ε-thiosuccinyl-lysine)-ST-CONH2,~40,,,,,,,,
